In paper PMC8196580, “Identification of Kaurane-Type Diterpenes as Inhibitors of Leishmania Pteridine Reductase I” (Molecules, 2021):
Like-named read-outs stand apart in the source and are kept apart here.

Experiments:
L. major [1] = experiment: ChEMBL dataset of pIC50 values against L. major used for the RF model (Table S1); assay type: cell-based, Leishmania major; note: call rule not given here
L. major [2] = tested on: L. major; set-up: method as in ChEMBL; conditions: ref ChEMBL, cited from earlier work
[3] = Active/Inactive class assigned to ChemBL structures for Random forest model construction (Table S1)
[4] = ChemBL structures with pIC50 values used for Random forest model construction (Table S1)
[5] = Active/Inactive class assigned to the ChEMBL pIC50 value for Random forest model construction, ref ChEMBL
[6] = ChemBL structures with pIC50 values used for Random forest model construction, L. major

Row | Structure (SMILES) | Outcome (L. major [1]; [3]) | pIC50 Value (L. major [2]; [4]) | Outcome (L. major [1]; [5]) | pIC50 Value (L. major [2]; [6])
1 | C[C@H](O)C#CC#CC#CC#CCCCCCCCC(=O)O [CHEMBL487989] | Active | 5.31 | – | –
2 | Cl.O=[N+]([O-])c1ccc(-c2nnc(N3CCN(c4ccc(C5=NCCN5)cc4)CC3)s2)o1 [CHEMBL1783210] | – | – | Inactive | 3.70
3 | CC1(O)CCCC2(C)Cc3c(O)ccc(O)c3CC12 (centres unmarked) [CHEMBL255315] | – | – | Inactive | 4.99
4 | C[C@H](OP(N)(=O)N(CCCl)CCCl)c1ccc([N+](=O)[O-])cc1 (some centres unmarked) [CHEMBL2158072] | – | – | Inactive | 4.52
5 | COc1cc(/C=N\NC(N)=S)ccc1OCc1cn(CC(=O)c2ccccc2)nn1 [CHEMBL4175538] | – | – | Active | 5.27
6 | Cc1cc2ccc(-c3c(C)cc(O)c4c(O)cccc34)c(O)c2c(C)n1 [CHEMBL222338] | – | – | Inactive | 4.00
7 | COc1ccc(-c2ccc3ccccc3c2)c2c1C(C)=N[C@H](C)C2 [CHEMBL1276917] | – | – | Inactive | 4.55
8 | CC1=C(C(=O)Nc2ccc(C(=O)/C=C/c3ccc(O)cc3)cc2)C(c2cccc(O)c2)NC(=S)N1 (centres unmarked) [CHEMBL3785704] | Active | 5.98 | – | –
9 | Clc1cc(Cl)cc(-c2c(-c3ccccc3)nc3ccccn23)c1 [CHEMBL2151868] | – | – | Active | 5.11
10 | C/C=C/C=C/C=C/c1nc2ccccc2n2cccc12 [CHEMBL3260218] | Active | 5.92 | – | –
11 | CCCN1CN(CC(=O)O)CSC1=S [CHEMBL4287780] | – | – | Inactive | 4.41
12 | Cl.N=C(c1ccc(N2CCN(c3nnc(-c4ccc([N+](=O)[O-])o4)s3)CC2)cc1)N1CCOCC1 [CHEMBL1783209] | – | – | Inactive | 4.03
13 | O=C(CN1CCOCC1)Nc1ccc2ncnc(Nc3ccc(OCc4cccc(F)c4)c(Cl)c3)c2c1 [CHEMBL3637894] | – | – | Inactive | 4.91
14 | c1ccc(-c2nc3ccccc3[nH]2)cc1 [CHEMBL153535] | Active | 5.46 | – | –
15 | Cc1csc(C2=NNC(c3cc4ccc(C)cc4nc3Cl)C2)c1 (centres unmarked) [CHEMBL2236137] | Active | 5.59 | – | –
16 | CCCCCN(CCCCC)c1ccc(Nc2c3ccccc3nc3ccccc23)cc1 [CHEMBL89031] | Active | 6.80 | – | –
17 | COc1ccc(/C=N/NC(=O)c2ccccc2OC)c(O)c1 [CHEMBL2382050] | – | – | Inactive | 4.88
18 | Clc1ccc(C2=NN3C(c4ccccc4)=NNC3S2)c(Cl)c1 (centres unmarked) [CHEMBL1256801] | – | – | Inactive | 4.00
19 | C/C=C/c1cc(OC)c(OC)c(O)c1OC [CHEMBL501754] | – | – | Inactive | 3.41
20 | C[C@]12CC[C@H](O)C[C@@H]1CC[C@@H]1[C@@H]2CC[C@@]2(C)[C@H]1CC[C@@H]2[C@@](C)(O)c1ccncc1Cl [CHEMBL1214242] | – | – | Active | 5.10
21 | COc1cc(OC)c2c(C)[n+](-c3ccc(C#N)cc3)c(C)cc2c1.O=C([O-])C(F)(F)F [CHEMBL481906] | – | – | Inactive | 4.00
22 | CN(C)CCNc1nccn2c(-c3ccncc3)c(-c3ccc(F)cc3)nc12 [CHEMBL3634366] | – | – | Inactive | 4.45
23 | O=C(/C=C/c1ccc(-n2ccnc2)cc1)c1cc(Cl)ccc1Cl [CHEMBL570739] | Active | 5.54 | – | –

Row | Structure (SMILES) | Outcome (L. major [1]; [3]) | pIC50 Value (L. major [2]; [4]) | Outcome (L. major [1]; [5]) | pIC50 Value (L. major [2]; [6])
24 | C=C[C@H]1CN2CCc3c([nH]c4ccccc34)[C@@H]2C[C@@H]1C(/C=C/OC)C(=O)OC (some centres unmarked) [CHEMBL3752140] | Active | 5.52 | – | –
25 | CCCN1CSC(=S)N(C(C)c2ccccc2)C1 (centres unmarked) [CHEMBL4290968] | – | – | Inactive | 4.62
26 | CCCCN1CSC(=S)N(CC(=O)O)C1 [CHEMBL4278695] | – | – | Inactive | 4.44
27 | CC(C)(O)[C@@H]1CC[C@](C)([C@@H]2[C@@H](O)C[C@@]3(C)[C@@H]4C[C@H](O)[C@H]5C(C)(C)[C@@H](O)CC[C@@]56C[C@@]46CC[C@]23C)O1 [CHEMBL504655] | – | – | Inactive | 3.97
28 | NP(=O)(OCc1ccc([N+](=O)[O-])c(F)c1)N(CCCl)CCCl (centres unmarked) [CHEMBL1256990] | – | – | Active | 5.04
29 | Cn1c([N+](=O)[O-])cnc1-c1nnc(N2CCN(C(=O)c3ccc(Cl)cc3)CC2)s1 [CHEMBL520958] | – | – | Inactive | 4.37
30 | O=[N+]([O-])c1ccc(-c2nnc(NCc3cn(Cc4ccccc4Cl)nn3)s2)o1 [CHEMBL1951525] | – | – | Inactive | 4.72
31 | COc1cc(OC)c2c(C)[n+](-c3cccc(C)c3C)c(C)cc2c1.F[B-](F)(F)F [CHEMBL480823] | – | – | Inactive | 4.94
32 | O=C(c1ccccc1)N1CCN(c2nnc(-c3ccc([N+](=O)[O-])o3)s2)CC1 [CHEMBL195349] | – | – | Inactive | 4.93
33 | Cc1csc(C2=NNC(c3cc4cccc(C)c4nc3Cl)C2)c1 (centres unmarked) [CHEMBL2235719] | Active | 5.66 | – | –
34 | COc1cc(OC)c2c(C)[n+](-c3ccc(C)cc3)c(C)cc2c1 [CHEMBL520612] | Active | 5.58 | – | –
35 | CCCN(CCC)c1ccc(Nc2c3ccccc3nc3ccccc23)cc1 [CHEMBL88980] | Active | 6.70 | – | –
36 | COC(=O)C1=C(C)NC(C)=C(C(=O)OC(C)(C)CN(C)CCC(c2ccccc2)c2ccccc2)C1c1cccc([N+](=O)[O-])c1 (centres unmarked) [CHEMBL250270] | – | – | Inactive | 4.94
37 | NP(=O)(OCc1ccc([N+](=O)[O-])cc1F)N(CCCl)CCCl (centres unmarked) [CHEMBL1256991] | Active | 5.33 | – | –
38 | CN(C)c1nccn2c(-c3ccncc3)c(-c3ccc(F)cc3)nc12 [CHEMBL3634367] | – | – | Active | 5.19
39 | O=C(/C=C/c1ccc(-n2ccnc2)cc1)c1cccc(F)c1F [CHEMBL570959] | Active | 5.57 | – | –
40 | COc1cc(OC)c2c(C)[n+](-c3cccc4cc5ccccc5cc34)c(C)cc2c1.F[B-](F)(F)F [CHEMBL482394] | Active | 6.14 | – | –
41 | Cn1c([N+](=O)[O-])cnc1-c1nnc(N2CCN(C(=O)c3ccccc3Cl)CC2)s1 [CHEMBL482464] | – | – | Inactive | 4.69
42 | Cc1ccsc1C1=NNC(c2cc3cccc(C)c3nc2Cl)C1 (centres unmarked) [CHEMBL2235718] | Active | 5.64 | – | –
43 | O=[N+]([O-])c1ccc2ncnc(Nc3ccc(Br)cc3)c2c1 [CHEMBL3760107] | – | – | Inactive | 4.21
44 | O=[N+]([O-])c1ccc(-c2nnc(NCc3cn(Cc4c(F)cccc4Cl)nn3)s2)o1 [CHEMBL1951532] | – | – | Inactive | 4.76
45 | C=CCCC/C=C\C/C=C\CCCCCCCc1cc(O)cc(O)c1 [CHEMBL496449] | – | – | Inactive | 4.98
46 | O=C(/C=C/C1=Cc2cc(Cl)ccc2OC1)c1ccc(Cl)cc1Cl [CHEMBL1097966] | Active | 5.72 | – | –
